The target of assay [1] is T1, INSR (Homo sapiens, UniProt P06213).
T1 construct: purchased Life technology (Madison, Wis.)
In words: INSR enzyme HTRF inhibition assay. The format is biochemical. Conditions: 35 μM ATP, read-out: INSR_IC50. As for the experimental part: Enzyme: EGFR wild type, EGFR T790M/L858R, EGFR T790M and INSR were purchased from Life technology (Madison, Wis.), EGFR d746-750/T790M was purchased from Carna Biosciences (Japan).
HTRF Kit was purchased from Cis-Bio International which contained the Eu-labeled TK1 antibody, XL665 and biotin-labeled TK1 polypeptide substrates.
Detecting instrument: Envision (PerkinElmer).
The test compound was diluted 3-fold to obtain 10 doses of which the final concentration was from 300 nM to 0.015 nM.
INSR Enzyme Reaction Mixture System:
0.5 nM INSR, 1 μM biotin-TK1 peptide, 35 μM ATP enzyme buffer, a total of which was 10 μL. The reaction plate was white Proxiplate 384-Plus plate (PerkinElmer) and the mixture was reacted at 23° C. for 60 minutes.
Reaction Detection: 10 μL of detection reagent containing Antibody 2 nM and XL665 62.5 nM was added, and the reagent was incubated at 23° C. for 60 minutes. The plates were read by Envision.
The reading is converted to the suppression rate (%) by the following formula […]/(Max-Min)*100%. IC50 Data was measured by four-parameter curve fitting (Model 205 in XLFITS, IDBS).
(In general: In TR-FRET formats the signal depends on donor and acceptor labels being close together.)

The target in assay [2] is T2, EGFR wild type (Homo sapiens, UniProt P00533).
T2 construct: purchased Life technology (Madison, Wis.)
In words: Wild-type EGFR enzyme HTRF inhibition assay. It counts as biochemical. The following applies: 25 μM ATP, read-out: EGFR WT IC50. The procedure, abridged:
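HTRF with 0.05 nM wild-type EGFR, 1 μM biotin-TK1 peptide, 25 μM ATP, 60 min at 23° C; detected with Eu-anti-TK1 antibody 2 nM and XL665 62.5 nM, 60 min at 23° C. Ten 3-fold doses, 300 nM to 0.015 nM final; IC50 by four-parameter fit of % inhibition.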

For assay [3], the system named is A431 cells EGFR WT. Put plainly: A431 cell viability assay (Cell Titer-Glo, 6 days). Conditions: for IC50: Homo sapiens, A-431, 144 h, A431 cells, 6 days; for A431:NCI-H1975 (ratio): ratio of cell IC50 A431 to NCI-H1975. The format is cell-based, human. Put shortly:
(§1)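 A431 (EGFR WT) and NCI-H1975 (EGFR L858R/T790M) cells treated for 6 days at 37° C, in duplicate with 10 three-fold doses from 10 μM to 0.508 nM final. Viability read as CellTiter-Glo luminescence. IC50 from four-parameter fit of % inhibition.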
A general note: ATP-based viability assays read luminescence as a measure of living cells.

Assay [4] concerns the target T3, EGFR d746-750/T790M (Homo sapiens, UniProt P00533, DEL746-750/T790M).
T3 construct: purchased Carna Biosciences (Japan)
Put plainly: EGFR d746-750/T790M enzyme HTRF inhibition assay. The format is biochemical. The following applies: 40 μM ATP. The procedure, abridged:
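0.025 nM enzyme with 1 μM biotin-TK1 peptide and 40 μM ATP, 60 min at 23° C; compound tested at 10 doses, 300 nM to 0.015 nM final. HTRF read (Eu-anti-TK1 antibody 2 nM, XL665 62.5 nM, 60 min at 23° C); IC50 from four-parameter fit of % inhibition.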

The test system of assay [5] is NCI-H1975 cells EGFR L858R/T790M. Put plainly: NCI-H1975 cell viability assay (Cell Titer-Glo, 6 days). The following applies: Homo sapiens, 144 h. The format is cell-based. The procedure, abridged: as §1
Assay [6] concerns the target T4, EGFR T790M/L858R (Homo sapiens, UniProt P00533, L858R/T790M).
T4 construct: purchased Life technology (Madison, Wis.)
Put plainly: EGFR T790M/L858R enzyme HTRF inhibition assay. The format is biochemical. The following applies: 20 μM ATP, read-out: EGFR L858R/T79M IC50. Put shortly: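 HTRF assay with 0.04 nM enzyme, 1 μM biotin-TK1 peptide and 20 μM ATP, 60 min at 23° C. Product detected with Eu-anti-TK1 antibody/XL665 (60 min at 23° C); compound at 10 doses, 300 nM to 0.015 nM final. IC50 from four-parameter fit.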

The test system of assay [7] is NCI-H1975 lung cancer xenograft (CDX). Put plainly: Pharmacodynamics study in vivo, NCI-H1975 xenograft (CDX) model. The following applies: day 0, oral daily: compound 30 10 mg/kg, 33, 34, 40, 42, 43 20 mg/kg, AZD9291 5 mg/kg. Details: species or system BALB/c nude mice. As for the experimental part:
(§2) For example, after 21 days of administration, the tumor volume of the representative compounds 30, 33, 34, 40, 42 and 43 decreased from the beginning of about 149 mm^3 to 3-39 mm^3.
(§3) The pharmacological experiments in vivo were performed on BALB/c nude mice that subcutaneously implanted NCI-H1975 lung cancer […] xenograft (CDX).
(§4) BALB/c nude mice, female, 6-8 weeks, weighted about 18-22 grams, the mice were kept in a special pathogen-free environment, and in a single ventilation cage (5 mice per cage). The bedding and water of all the cages were disinfected before use. All animals were free to obtain standard certified commercial laboratory diets. A total of 100 mice were purchased from Beijing Vital for research. The tumor tissue (20-30 mm^3) was implanted subcutaneously in the […] of each mouse for tumor growth. The experiment was started when the average tumor volume reached about 150-200 mm^3. The test compound was orally administered daily (compound 30 was administered at 10 mg/kg, compound 33, 34, 40, 42 and 43 were administered at 20 mg/kg and compound AZD9291 was administered continuously for 21 days at 5 mg/kg, the data were shown in Table 3). The tumor volume was measured twice a week with a two-dimensional caliper and the volume was measured in cubic millimeters and calculated by the following formula: V=V=0.5 a×b2, where a and b were the major and minor diameters of the tumor, respectively.

Assay [8] relates to NCI-H1975 lung cancer patient-derived xenograft (CDX). The assay is described as above. Conditions: AZD9291 5 mg/kg; for Tumor Volume (mm^3) 4 days: day 4, oral daily: compound 30 10 mg/kg, 33, 34, 40, 42, 43 20 mg/kg; for Tumor Volume (mm^3) 7 days: day 7, oral daily: compound 30 10 mg/kg, 33, 34, 40, 42, 43 20 mg/kg; for Tumor Volume (mm^3) 11 days: day 11, oral daily: compound 30 10 mg/kg, 33, 34, 40, 42, 43 20 mg/kg; for Tumor Volume (mm^3) 14 days: day 14, oral daily: compound 30 10 mg/kg, 33, 34, 40, 42, 43 20 mg/kg; for Tumor Volume (mm^3) 18 days: day 18, oral daily: compound 30 10 mg/kg, 33, 34, 40, 42, 43 20 mg/kg. Details: species or system BALB/c nude mice. As for the experimental part:
as §2, §3, §4

The test system of assay [9] is human skin squamous cell A431 xenograft (CDX). In words: Selectivity study in vivo, A431 xenograft (CDX) model. Details: species or system BALB/c nude mice. Conditions: Table 5 experiment, AZD9291 5 mg/kg. As for the experimental part:
In this model, the less inhibitory effect on the tumor, the better the selectivity in vivo.
The selective experiments in vivo were performed on BALB/c nude mice that subcutaneously implanted human skin squamous cell A431 xenograft (CDX).
BALB/c nude mice, female, 6-8 weeks, weighted about 18-20 grams, the mice were kept in a special pathogen-free environment and in a single ventilation cage (5 mice per cage). The bedding and water of all the cages were disinfected before use. All animals were free to obtain standard certified commercial laboratory diets. All mice were purchased from mice of Shanghai BK Laboratory Animal Co., LTD for research. The tumor tissue (20-30 mm^3) was implanted subcutaneously in the […] of each mouse for tumor growth. The experiment was started when the average tumor volume reached about 150-200 mm^3. The test compound was orally administered (compounds 17, 30, 37 and 38 were administered once daily at 20 mg/kg, the compound AZD9291 was administered once daily at 5 mg/kg, the compound CO-1686 was administered twice daily at 50 mg/kg, the compound Erlotinib was administered once daily at 75 mg/kg and the compound Afatinib was administered once daily at 7.5 mg/kg, 21 days of continuous administration. The data were shown in Table 4; compounds 33, 34, 40, 42 and 43 were administered once daily at 20 mg/kg and compound AZD9291 was administered once daily at5 mg/kg, 21 days of continuous administration. The tumor volume was measured twice a week with a two-dimensional caliper and the volume was measured in cubic millimeters and calculated by the following formula: V=V=0.5 a×b2, where a and b were the major and minor diameters of the tumor, respectively.

T1 sequence (P06213 28-1382): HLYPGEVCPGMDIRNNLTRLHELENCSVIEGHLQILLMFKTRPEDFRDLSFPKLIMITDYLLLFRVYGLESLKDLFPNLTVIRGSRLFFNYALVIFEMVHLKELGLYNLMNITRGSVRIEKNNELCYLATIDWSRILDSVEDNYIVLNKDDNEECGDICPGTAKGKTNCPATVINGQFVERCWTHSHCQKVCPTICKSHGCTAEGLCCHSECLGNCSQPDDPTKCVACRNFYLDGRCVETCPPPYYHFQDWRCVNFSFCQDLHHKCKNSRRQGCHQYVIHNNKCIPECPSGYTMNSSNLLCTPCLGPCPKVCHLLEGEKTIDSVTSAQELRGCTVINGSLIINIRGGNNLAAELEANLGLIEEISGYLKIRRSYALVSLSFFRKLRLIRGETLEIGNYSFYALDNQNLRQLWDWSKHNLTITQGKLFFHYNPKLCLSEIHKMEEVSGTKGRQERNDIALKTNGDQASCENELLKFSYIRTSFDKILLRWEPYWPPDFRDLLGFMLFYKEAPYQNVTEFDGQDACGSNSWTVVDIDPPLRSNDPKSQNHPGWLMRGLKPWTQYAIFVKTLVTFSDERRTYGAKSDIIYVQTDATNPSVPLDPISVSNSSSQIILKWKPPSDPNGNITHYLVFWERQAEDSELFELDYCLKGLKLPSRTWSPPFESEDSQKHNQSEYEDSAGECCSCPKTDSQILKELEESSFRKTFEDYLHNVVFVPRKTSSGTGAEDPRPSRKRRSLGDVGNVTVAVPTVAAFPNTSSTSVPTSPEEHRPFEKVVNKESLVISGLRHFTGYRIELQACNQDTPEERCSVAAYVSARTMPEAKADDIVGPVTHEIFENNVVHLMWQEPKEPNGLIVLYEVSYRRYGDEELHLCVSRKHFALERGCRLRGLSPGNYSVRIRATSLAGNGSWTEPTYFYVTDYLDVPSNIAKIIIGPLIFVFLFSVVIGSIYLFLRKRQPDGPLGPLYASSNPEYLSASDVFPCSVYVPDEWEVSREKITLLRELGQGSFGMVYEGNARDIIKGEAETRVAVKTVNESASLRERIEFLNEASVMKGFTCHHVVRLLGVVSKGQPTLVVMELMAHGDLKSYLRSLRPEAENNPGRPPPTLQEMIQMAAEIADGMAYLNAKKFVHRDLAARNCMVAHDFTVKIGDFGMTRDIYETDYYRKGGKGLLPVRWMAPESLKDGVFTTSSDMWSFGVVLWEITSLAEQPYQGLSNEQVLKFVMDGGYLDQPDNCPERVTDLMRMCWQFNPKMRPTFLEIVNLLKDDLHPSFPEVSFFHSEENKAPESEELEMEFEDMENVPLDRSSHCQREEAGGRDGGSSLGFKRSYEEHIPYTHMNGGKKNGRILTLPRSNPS
T4 sequence (P00533 25-1210 T790M/L858R): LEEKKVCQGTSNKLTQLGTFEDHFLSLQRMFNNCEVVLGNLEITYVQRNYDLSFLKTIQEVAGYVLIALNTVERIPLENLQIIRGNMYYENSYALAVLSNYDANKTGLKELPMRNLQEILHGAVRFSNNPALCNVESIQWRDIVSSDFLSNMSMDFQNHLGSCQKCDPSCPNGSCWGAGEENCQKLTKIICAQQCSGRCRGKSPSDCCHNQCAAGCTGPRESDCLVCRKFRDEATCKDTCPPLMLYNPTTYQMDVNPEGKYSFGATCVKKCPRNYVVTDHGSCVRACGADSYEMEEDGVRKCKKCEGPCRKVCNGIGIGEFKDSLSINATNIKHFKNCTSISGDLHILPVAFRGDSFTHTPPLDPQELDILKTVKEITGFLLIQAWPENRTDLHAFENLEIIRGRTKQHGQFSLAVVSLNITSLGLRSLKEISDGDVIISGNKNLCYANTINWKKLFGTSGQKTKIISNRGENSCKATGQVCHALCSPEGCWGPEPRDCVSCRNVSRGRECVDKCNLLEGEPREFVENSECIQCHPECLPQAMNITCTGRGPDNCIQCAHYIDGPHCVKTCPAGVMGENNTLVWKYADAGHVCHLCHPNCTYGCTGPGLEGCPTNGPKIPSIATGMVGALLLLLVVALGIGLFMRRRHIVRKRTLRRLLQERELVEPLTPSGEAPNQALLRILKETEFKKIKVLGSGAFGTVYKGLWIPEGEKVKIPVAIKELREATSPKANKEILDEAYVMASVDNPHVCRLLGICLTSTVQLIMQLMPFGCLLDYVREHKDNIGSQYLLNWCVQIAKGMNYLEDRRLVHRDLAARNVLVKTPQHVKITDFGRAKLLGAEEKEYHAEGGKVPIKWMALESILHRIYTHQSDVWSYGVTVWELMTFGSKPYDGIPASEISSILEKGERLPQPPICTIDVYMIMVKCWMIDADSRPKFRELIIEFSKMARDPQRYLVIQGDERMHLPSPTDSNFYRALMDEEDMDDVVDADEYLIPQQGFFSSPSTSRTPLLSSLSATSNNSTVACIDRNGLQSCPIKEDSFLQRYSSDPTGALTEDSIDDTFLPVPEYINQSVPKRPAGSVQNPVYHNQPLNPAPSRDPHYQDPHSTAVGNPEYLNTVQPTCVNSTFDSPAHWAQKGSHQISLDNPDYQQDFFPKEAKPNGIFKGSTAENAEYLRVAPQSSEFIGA
T3 sequence (P00533 with tags, fused parts or gaps DEL746-750/T790M limits assumed): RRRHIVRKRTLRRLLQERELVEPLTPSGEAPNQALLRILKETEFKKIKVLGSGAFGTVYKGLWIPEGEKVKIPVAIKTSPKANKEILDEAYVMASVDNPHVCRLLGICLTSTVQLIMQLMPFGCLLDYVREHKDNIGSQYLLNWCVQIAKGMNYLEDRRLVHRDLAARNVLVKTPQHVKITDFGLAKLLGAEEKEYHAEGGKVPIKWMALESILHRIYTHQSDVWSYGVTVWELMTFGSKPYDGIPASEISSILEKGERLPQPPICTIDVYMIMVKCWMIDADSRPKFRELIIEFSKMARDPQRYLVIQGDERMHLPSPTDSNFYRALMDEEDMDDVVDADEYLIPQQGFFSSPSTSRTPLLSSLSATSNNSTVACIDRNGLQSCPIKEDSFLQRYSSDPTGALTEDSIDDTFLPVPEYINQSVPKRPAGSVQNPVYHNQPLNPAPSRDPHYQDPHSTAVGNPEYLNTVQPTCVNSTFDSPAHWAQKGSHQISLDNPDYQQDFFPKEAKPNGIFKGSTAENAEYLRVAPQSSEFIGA
T2 sequence (P00533 25-1210): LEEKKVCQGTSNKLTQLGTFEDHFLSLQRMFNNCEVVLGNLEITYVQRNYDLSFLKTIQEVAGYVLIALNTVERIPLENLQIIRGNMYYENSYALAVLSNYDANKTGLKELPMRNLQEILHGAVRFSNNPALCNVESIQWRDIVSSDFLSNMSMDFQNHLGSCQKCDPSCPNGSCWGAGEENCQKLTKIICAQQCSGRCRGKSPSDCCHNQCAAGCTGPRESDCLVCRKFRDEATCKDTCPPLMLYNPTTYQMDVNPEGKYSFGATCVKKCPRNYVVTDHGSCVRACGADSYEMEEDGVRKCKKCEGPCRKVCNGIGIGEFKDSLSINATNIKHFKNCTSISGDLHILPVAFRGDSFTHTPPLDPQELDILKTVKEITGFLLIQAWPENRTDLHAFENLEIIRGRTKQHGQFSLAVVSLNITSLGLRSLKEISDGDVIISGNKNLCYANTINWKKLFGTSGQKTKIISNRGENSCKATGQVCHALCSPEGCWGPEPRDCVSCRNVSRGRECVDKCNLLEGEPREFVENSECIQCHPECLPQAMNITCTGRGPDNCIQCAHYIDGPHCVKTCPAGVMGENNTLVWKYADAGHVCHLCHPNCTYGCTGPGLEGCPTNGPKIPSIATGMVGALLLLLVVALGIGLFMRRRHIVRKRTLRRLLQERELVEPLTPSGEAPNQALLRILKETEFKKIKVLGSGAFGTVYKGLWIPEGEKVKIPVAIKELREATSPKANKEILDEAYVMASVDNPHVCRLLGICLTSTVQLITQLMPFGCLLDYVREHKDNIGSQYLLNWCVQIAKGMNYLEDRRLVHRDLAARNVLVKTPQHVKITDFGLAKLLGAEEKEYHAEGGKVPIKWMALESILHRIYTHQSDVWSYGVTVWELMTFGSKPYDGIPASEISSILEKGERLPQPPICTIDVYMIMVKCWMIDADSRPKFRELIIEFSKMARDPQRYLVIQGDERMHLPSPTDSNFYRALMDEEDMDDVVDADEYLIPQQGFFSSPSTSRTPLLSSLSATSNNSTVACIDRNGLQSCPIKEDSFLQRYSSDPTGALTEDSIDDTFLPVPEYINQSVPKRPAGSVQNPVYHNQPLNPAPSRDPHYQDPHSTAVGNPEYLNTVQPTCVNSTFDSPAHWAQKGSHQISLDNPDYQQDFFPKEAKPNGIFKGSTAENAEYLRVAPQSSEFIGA

Consider `C=CC(=O)Nc1cc(Nc2nccc(-c3c4n(c5ccccc35)CCOC4)n2)c(OC)cc1N(C)CCN(C)CC` [Embodiment 18, N-(5-((4-(3,4-Dihydro-1H-[1,4]oxazino[4,3-a]indol-10-yl)pyrimidin-2-yl)amino)-2-((2-(ethyl(methyl)amino)ethyl)(methyl)amino)-4-methoxyphenyl)acrylamide], for which the IC50 came to 633 nM in assay [1]; 1.9 nM in assay [2]; 518 nM in assay [3]; 0.18 nM in [4]; 7 nM in [5]; 0.2 nM in assay [6]. Moreover, the “A431:NCI-H1975 (ratio)” value in [3] came out at 74.

Take `C=CC(=O)Nc1cc(Nc2nccc(-c3cn(C)c4ccccc34)n2)c(OC)cc1N(C)CCN(C)C` [AZD9291, reference compound]: the “Tumor Volume (mm^3) 0 day” value in assay [7] turned out to be 149 mm^3. Besides, in [8], the “Tumor Volume (mm^3) 4 days” value is given as 86 mm^3, the “Tumor Volume (mm^3) 7 days” value stood at 64 mm^3, the “Tumor Volume (mm^3) 11 days” value is recorded as 52 mm^3 and the “Tumor Volume (mm^3) 14 days” value worked out at 66 mm^3. Besides, in [8], the “Tumor Volume (mm^3) 18 days” value is 25 mm^3. Further, the “Tumor Volume (mm^3) 21 days” value in assay [8] (day 21, oral daily: compound 30 10 mg/kg, 33, 34, 40, 42, 43 20 mg/kg) came to 15 mm^3. Besides, the “Tumor Volume (mm^3) 4 days” value in assay [9] (day 4, oral once daily: 33, 34, 40, 42, 43 20 mg/kg) is 153 mm^3. Also, the “Tumor Volume (mm^3) 11 days” value in assay [9] (day 11, oral once daily: 33, 34, 40, 42, 43 20 mg/kg) is recorded as 219 mm^3. For the same compound, the “Tumor Volume (mm^3) 18 days” value in assay [9] (day 18, oral once daily: 33, 34, 40, 42, 43 20 mg/kg) is 330 mm^3.

Consider `C=CC(=O)Nc1cc(Nc2nccc(-c3c4n(c5ccccc35)CCOC4)n2)c(OC)cc1N(C)CCNC` [Embodiment 27, N-(5-((4-(3,4-Dihydro-1H-[1,4]oxazino[4,3-a]indol-10-yl)pyrimidin-2-yl)amino)-4-methoxy-2-(methyl(2-(methylamino)ethyl)amino)phenyl)acrylamide], for which the IC50 in assay [1] worked out at 570 nM; in assay [2] it was 1.7 nM; in assay [3] it was 485 nM; in [4] it was 0.19 nM; in assay [5], 5 nM; in assay [6], 0.21 nM. Also, in assay [3], the “A431:NCI-H1975 (ratio)” value amounted to 97.

As to `C=CC(=O)Nc1cc(Nc2nccc(-c3c4n(c5ccc(F)cc35)CCOC4)n2)c(OC)cc1N(C)CCN(C)C` [Embodiment 37, N-(2-((2-(Dimethylamino)ethyl)(methyl)amino)-5-((4-(8-fluoro-3,4-dihydro-1H-[1,4]oxazino[4,3-a]indol-10-yl)pyrimidin-2-yl)amino)-4-methoxyphenyl)acrylamide], the IC50 came out at 440 nM in assay [1]; 0.35 nM in assay [2]; 303 nM in [3]; 0.1 nM in assay [4]; 12.5 nM in [5]; 0.1 nM in [6]. In assay [3], the “A431:NCI-H1975 (ratio)” value stood at 24.

Take `C=CC(=O)Nc1cc(Nc2ncc(F)c(-c3c4n(c5ccccc35)CCOC4)n2)c(OC)cc1N(C)CCN(C)C` [Embodiment 30, N-(5-((4-(3,4-Dihydro-1H-[1,4]oxazino[4,3-a]indol-10-yl)-5-fluoropyrimidin-2-yl)amino)-2-((2-(dimethylamino)ethyl)(methyl)amino)-4-methoxyphenyl)acrylamide]: in assay [1], the IC50 amounted to 393 nM. Besides, in assay [2], the IC50 amounted to 0.8 nM. In addition, in assay [3], the IC50 came to 823 nM and the “A431:NCI-H1975 (ratio)” value is 55. In assay [4], the IC50 came to 0.16 nM. In [8], the “Tumor Volume (mm^3) 4 days” value is given as 115 mm^3, the “Tumor Volume (mm^3) 7 days” value is reported as 90 mm^3, the “Tumor Volume (mm^3) 11 days” value came out at 48 mm^3 and the “Tumor Volume (mm^3) 14 days” value came to 34 mm^3. In [8], the “Tumor Volume (mm^3) 18 days” value amounted to 22 mm^3. The same compound registered an IC50 in [5] of 15 nM. Further, in [6], the IC50 came out at 0.14 nM.

In the case of `C=CC(=O)Nc1cc(Nc2nccc(-c3c4n(c5ccccc35)CCC4)n2)c(OC)cc1N(C)CCN(C)C` [Embodiment 1], the IC50 came out at 404 nM in assay [1]; 1.49 nM in assay [2]; 714 nM in assay [3]; 0.39 nM in assay [4]; 10.4 nM in [5]; 0.32 nM in assay [6]. For the same compound, the “A431:NCI-H1975 (ratio)” value in assay [3] is listed as 71.4.

The record behind these values is patent US10093656B2, “Fused-ring or tricyclic aryl pyrimidine compound used as kinase inhibitor” (NANJING SANHOME PHARMACEUTICAL CO., LTD, priority 2015, dated 2018).
